From PubChem BioAssay (NCI)
“And” between values parts separate entries of the source, which are not always exact repeats. Equal values may be shown once.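 Compound exposure: 48 hours, 5 concentrations, 96-well plates. Here, GI50 denotes the concentration required for 50% inhibition of growth. TGI: total growth inhibition.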 Square brackets hold non-standard residues; d marks the D form. Peptide text beside a SMILES is read from it. * marks the point of attachment. ξ: configuration not given here. Boc = CC(C)(C)OC(=O)*; ξV = CC(C)C(N)C(=O)O; OBn = c1ccc(CO*)cc1

Legend:
Assay in all cases: growth of human tumour cells (NCI), 48 h
[1] = tested on: HL-60(TB) leukemia
[2] = tested on: K-562 leukemia
[3] = tested on: 786-0 renal
[4] = tested on: A498 renal
[5] = tested on: A549 NSCLC
[6] = tested on: ACHN renal
[7] = tested on: CAKI-1 renal
[8] = tested on: CCRF-CEM leukemia
[9] = tested on: COLO 205 colon
[10] = tested on: DU-145 prostate
[11] = tested on: HCC-2998 colon
[12] = tested on: HCT-116 colon
[13] = tested on: HCT-15 colon
[14] = tested on: HOP-62 NSCLC
[15] = tested on: HOP-92 NSCLC
[16] = tested on: HS 578T breast
[17] = tested on: HT29 colon
[18] = tested on: IGROV1 ovarian
[19] = tested on: KM12 colon
[20] = tested on: LOX IMVI melanoma
[21] = tested on: MCF7 breast
[22] = tested on: MDA-MB-231 breast
[23] = tested on: MOLT-4 leukemia
[24] = tested on: NCI-H226 lung
[25] = tested on: NCI-H23 lung
[26] = tested on: NCI-H460 lung
[27] = tested on: NCI-H522 lung
[28] = tested on: NCI/ADR-RES ovarian
[29] = tested on: OVCAR-3 ovarian
[30] = tested on: OVCAR-4 ovarian
[31] = tested on: OVCAR-5 ovarian
[32] = tested on: OVCAR-8 ovarian
[33] = tested on: PC-3 prostate
[34] = tested on: RPMI-8226 leukemia
[35] = tested on: RXF 393 renal
[36] = tested on: SF-268 CNS
[37] = tested on: SF-295 CNS
[38] = tested on: SF-539 CNS
[39] = tested on: SK-MEL-2 melanoma
[40] = tested on: SK-MEL-28 melanoma
[41] = tested on: SK-MEL-5 melanoma
[42] = tested on: SK-OV-3 ovarian
[43] = tested on: SN12C renal
[44] = tested on: SNB-19 CNS
[45] = tested on: SNB-75 CNS
[46] = tested on: SR leukemia
[47] = tested on: SW-620 colon
[48] = tested on: U251 CNS
[49] = tested on: UACC-257 melanoma
[50] = tested on: UACC-62 melanoma
[51] = tested on: UO-31 renal
[52] = tested on: M14 melanoma
[53] = tested on: MALME-3M melanoma
[54] = tested on: MDA-MB-435
[55] = tested on: T-47D breast

## CC(C)C(NC(=O)CNC(=O)OC(C)(C)C)C(=O)OCc1ccccc1 (stereo not drawn) (Boc-Gly-[ξV]-OBn)
[1]
  GI50: 86.5 µg/mL
[2]
  GI50: 30.4 µg/mL

## COc1ccc(-c2cn[nH]c2-c2cc(OC)c(OC)c(OC)c2)cc1
[3]
  GI50: 65.6 nM
  TGI: 7.76 µM
[4]
  TGI: 0.0715 µM
[5]
  GI50: 34.6 nM
  TGI: > 38.7 µM
[6]
  GI50: 61.5 nM
  TGI: 21.3 µM
[7]
  GI50: 0.0187 µM
  TGI: 18.2 µM
[8]
  GI50: 35.3 nM
  TGI: > 42.6 µM
[9]
  GI50: 19.7 nM
  TGI: 48.2 nM
[10]
  GI50: 39.2 nM
  TGI: 2.67 µM
[11]
  GI50: 43.2 nM
  TGI: 15 µM
[12]
  GI50: 34.2 nM
  TGI: 11.4 µM
[13]
  GI50: 21.7 nM
  TGI: 21.8 µM
[1]
  GI50: 24.9 nM
  TGI: 67.1 nM
[14]
  GI50: 35.2 nM
  TGI: 33.7 µM
[15]
  GI50: 40.7 nM
  TGI: 9.79 µM
[16]
  GI50: 40.8 nM
  TGI: 22.5 µM
[17]
  GI50: 25.8 nM
  TGI: 336 nM
[18]
  GI50: 36.3 nM
  TGI: 19.9 µM
[2]
  GI50: < 10.9 nM
  TGI: 26.7 µM
[19]
  GI50: 25.2 nM
  TGI: 12 µM
[20]
  GI50: 123 nM
  TGI: 20.7 µM
[21]
  GI50: 28.4 nM
  TGI: 16.8 µM
[22]
  GI50: 55 nM
  TGI: 33.1 µM
[23]
  GI50: 45.7 nM
  TGI: 4.21 µM
[24]
  GI50: 111 nM
  TGI: 20.6 µM
[25]
  GI50: 44 nM
  TGI: 30.2 µM
[26]
  GI50: 35.1 nM
  TGI: 10.5 µM
[27]
  GI50: 10.1 nM
  TGI: 38.5 nM
[28]
  GI50: 0.0305 µM
  TGI: 40.2 µM
[29]
  GI50: 22.8 nM
  TGI: 69.4 nM
[30]
  GI50: 511 nM
  TGI: 46.9 µM
[31]
  GI50: 37.5 nM
  TGI: 36.9 µM
[32]
  GI50: 50 nM
  TGI: 38.1 µM
[33]
  GI50: 30.9 nM
  TGI: 59.8 µM
[34]
  GI50: 42.9 nM
  TGI: 5160 nM
[35]
  GI50: 26.9 nM
  TGI: 25100 nM
[36]
  GI50: 79.5 nM
  TGI: 31.5 µM
[37]
  TGI: 37.9 nM
[38]
  GI50: 21.8 nM
  TGI: 56.6 nM
[39]
  GI50: 31.7 nM
  TGI: 21.5 µM
[40]
  GI50: 37.6 nM
  TGI: 32 µM
[41]
  GI50: 24.3 nM
  TGI: 226 nM
[42]
  GI50: 29.3 nM
  TGI: 9.12 µM
[43]
  GI50: 193 nM
  TGI: 47.3 µM
[44]
  GI50: 63.1 nM
  TGI: > 74.9 µM
[45]
  GI50: 22 nM
  TGI: 33.6 µM
[46]
  GI50: 17.7 nM
  TGI: 13.9 µM
[47]
  GI50: 31.6 nM
  TGI: 26.7 µM
[48]
  GI50: 35.8 nM
  TGI: 1700 nM
[49]
  GI50: 558 nM
  TGI: > 49.6 µM
[50]
  GI50: 33.9 nM
  TGI: 19.5 µM
[51]
  GI50: 57.2 nM
  TGI: 15.2 µM

## CCCCCCCCCCCCCCCC[N+](C)(C)Cc1ccccc1
[3]
  GI50: 1520 nM
  TGI: 2.93 µM
[4]
  GI50: 1920 nM and 1870 nM
  TGI: 6.3 µM and 4.83 µM
[6]
  GI50: 2430 nM and 2360 nM
  TGI: 7.96 µM and 6.53 µM
[7]
  GI50: 9.52 µM and 3.74 µM
  TGI: 35.6 µM and 21.7 µM
[9]
  GI50: 1650 nM
  TGI: 3240 nM
[10]
  GI50: 1700 nM and 1620 nM
  TGI: 3.22 µM and 3.12 µM
[11]
  GI50: 923 nM
  TGI: 2.38 µM
[13]
  GI50: 2860 nM and 3240 nM
  TGI: 15.8 µM and > 30.4 µM
[1]
  GI50: 859 nM
  TGI: 2450 nM
[16]
  GI50: 1820 nM
  TGI: 4.89 µM
[17]
  GI50: 1010 nM
  TGI: 2360 nM
[18]
  GI50: 209 nM
  TGI: 0.533 µM
[19]
  GI50: 1130 nM
  TGI: 2.42 µM
[52]
  GI50: 1200 nM
  TGI: 2490 nM
[53]
  GI50: 1240 nM
  TGI: 2720 nM
[22]
  GI50: 1380 nM
  TGI: 3.32 µM
[54]
  GI50: 1540 nM
  TGI: 2910 nM
[28]
  GI50: 14.4 µM and 12 µM
  TGI: 45.1 µM and 42 µM
[29]
  GI50: 1210 nM
  TGI: 2530 nM
[30]
  GI50: 1590 nM
  TGI: 4.55 µM
[33]
  GI50: 537 nM
  TGI: 2 µM
[34]
  GI50: 51.6 nM
  TGI: 239 nM
[35]
  GI50: 606 nM and 306 nM
  TGI: 1970 nM and 1350 nM
[37]
  GI50: 1550 nM
  TGI: 3290 nM
[40]
  GI50: 1680 nM
  TGI: 3.19 µM
[41]
  GI50: 1330 nM
  TGI: 2620 nM
[42]
  GI50: 1680 nM
  TGI: 3.7 µM
[45]
  GI50: 1340 nM
  TGI: 2.76 µM
[55]
  GI50: 1310 nM and 1480 nM
  TGI: 5.62 µM and 6.1 µM
[50]
  GI50: 1360 nM
  TGI: 2.98 µM
[51]
  GI50: 2980 nM and 2010 nM
  TGI: 22.8 µM and 8.18 µM
